Read-outs that look alike come from different tables or passages of the source.
Assays:
[1] = Study 1: biodistribution of ^99mTc-NTP 15-5 in healthy rat; assay type: in vivo; details: 1 h p.i., 0.37 MBq, average from 3 animals ± SD
Protocol: Quantitative biodistribution of radiolabelled compounds was determined in rats: healthy animals as well as rats with primary grade II orthotopic chondrosarcoma at stage Day-30 after induction. The chondrosarcoma model was the Swarm Rat Chondrosarcoma model (SRC) implanted in paratibial location. […] One hour after injection, animals were then sacrificed by CO2 inhalation, dissected and organs of interest removed, weighed and their radioactivity counted using a gamma counter (Model 1480 Wizard, Perkin Elmer Life Sciences, Boston, USA). Organs collected were blood, muscle, knee, kidneys, liver, thoracic ribs, bladder for both healthy and chondrosarcoma bearing rats. For SRC animals, tumour was also sampled. After radioactive decay correction, results were expressed for each organ as % injected dose per gram (% ID/g) and averaged per group.
The following table discloses the biodistribution of ^99mTc-NTP 15-5 in healthy rat, carried out in similar conditions than those of the compounds of the invention (see section C above).

[2] = Study 2: biodistribution in healthy New Zealand rabbits (gamma counting of dissected organs); assay type: in vivo; details: i.v.
Protocol: Biodistribution were determined in 36 healthy New Zealand rabbits (18 males and 18 females, 14 weeks old, 3.5 kg weight, Charles River, France), being randomly divided into two groups: • One group receiving ^99mTc-NTP 15-5: 18±3 MBq/animal for biodistribution; • One group receiving ^64Cu-2: 17±4 MBq/animal for biodistribution.
The compounds were i.v. administered to anesthetized animals (ketamine/xylazine by intramuscular route) in the marginal ear vein.
At selected time points after injection (15 min, 1 h, 3 h, 6 h, 20 h after injection), animals (3 animals/time point/compound) were sacrificed by a lethal i.v. dose of pentobarbital. Organs of interest were dissected, weighed and their radioactivity measured using a gamma counter (Model 1480 Wizard, Perkin Elmer Life Sciences, Boston, USA). After radioactive decay correction, results were expressed for each organ as % injected dose per gram (% ID/g) and averaged per group and per time point.

[3] = Biodistribution in healthy and SRC bearing rats at 1 h after i.v. injection of radiolabelled compounds; assay type: in vivo; details: mean ± SD (n = 3)
Protocol: (§1) Quantitative biodistribution of radiolabelled compounds was determined in rats: healthy animals as well as rats with primary grade II orthotopic chondrosarcoma at stage Day-30 after induction. The chondrosarcoma model was the Swarm Rat Chondrosarcoma model (SRC) implanted in paratibial location. Radiolabelled compounds (5-10 Mbq/animal) were i.v. administered in the caudal vein of animals being anesthetized of mixture of ketamine (58 mg/kg i.p.) (Imalgéne 500®) and xylazine (6 mg/kg i.p.) (Rompun® 2%, Bayer, France). One hour after injection, animals were then sacrificed by CO2 inhalation, dissected and organs of interest removed, weighed and their radioactivity counted using a gamma counter (Model 1480 Wizard, Perkin Elmer Life Sciences, Boston, USA). Organs collected were blood, muscle, knee, kidneys, liver, thoracic ribs, bladder for both healthy and chondrosarcoma bearing rats. For SRC animals, tumour was also sampled. After radioactive decay correction, results were expressed for each organ as % injected dose per gram (% ID/g) and averaged per group.

[4] = Study 3: quantitative biodistribution of ^64Cu-5 in rats; assay type: in vivo
Protocol: as §1, with “USA).” for “USA). Organs collected were blood, muscle, knee, kidneys, liver, thoracic ribs, bladder for both healthy and chondrosarcoma bearing rats.”, “tumor” for “tumour”
The comparison was carried out between ^64Cu-5 and ^99mTc-NTPC, the NTPC ligand having the following structure: […]

[5] = Maurizis et al. 2000, 7.4 MBq/Kg; cited from earlier work
[6] = i.v., 5-10 MBq/animal, one hour after injection

CC[N+](CC)(CC)CCCN1CC[N]2CC[N]3CC[N]4CC[N](CC1)[Tc]234(=[O])=[O].[Br-] [^99mTc-NTP 15-5, reference compound]
Blood [1]: 0.90 ± 0.08 % ID/g
Bone (tibia) [1]: 0.51 ± 0.29 % ID/g
Brain [1]: 0.14 ± 0.02 % ID/g
Kidney [1]: 15.4 ± 12.5 % ID/g
Liver [1]: 2.02 ± 0.38 % ID/g
Lung [1]: 1.71 ± 0.97 % ID/g
Muscle [1]: 0.37 ± 0.24 % ID/g
Spleen [1]: 0.71 ± 0.25 % ID/g
Testis [1]: 1.11 ± 0.47 % ID/g
Tibial plateau [1]: 2.99 ± 1.60 % ID/g
Uptake ratio Cartilage/Bone ([2]; 15 min): 51.5
Uptake ratio Cartilage/Muscle ([2]; 15 min): 103
Articular Cartilage ([2]; 15 min after injection): 1.03 ± 0.4 % ID/g
Bile ([2]; 15 min after injection): 0.09 ± 0.08 % ID/g
Blood ([2]; 15 min after injection): 1.09 ± 0.81 % ID/g
Bone ([2]; 15 min after injection): 0.02 ± 0.01 % ID/g
Bone Marrow ([2]; 15 min after injection): 0.02 ± 0.02 % ID/g
Kidney ([2]; 15 min after injection): 0.19 ± 0.03 % ID/g
Liver ([2]; 15 min after injection): 0.05 ± 0.02 % ID/g
Lung ([2]; 15 min after injection): 0.04 ± 0.04 % ID/g
Muscle ([2]; 15 min after injection): 0.01 ± 0.00 % ID/g
Spleen ([2]; 15 min after injection): 0.03 ± 0.06 % ID/g
Thyroid ([2]; 15 min after injection): 0.05 ± 0.04 % ID/g
Urine ([2]; 15 min after injection): 1.40 ± 1.02 % ID/g
Uptake ratio Cartilage/Bone ([2]; 1 h): 46
Articular Cartilage ([2]; 1 h after injection): 0.92 ± 0.4 % ID/g
Bile ([2]; 1 h after injection): 0.09 ± 0.07 % ID/g
Blood ([2]; 1 h after injection): 0.75 ± 0.09 % ID/g
Bone ([2]; 1 h after injection): 0.02 ± 0.00 % ID/g
Bone Marrow ([2]; 1 h after injection): 0.01 ± 0.00 % ID/g
Kidney ([2]; 1 h after injection): 0.10 ± 0.06 % ID/g
Liver ([2]; 1 h after injection): 0.06 ± 0.03 % ID/g
Lung ([2]; 1 h after injection): 0.02 ± 0.00 % ID/g
Muscle ([2]; 1 h after injection): 0.00 ± 0.00 % ID/g
Spleen ([2]; 1 h after injection): 0.02 ± 0.01 % ID/g
Thyroid ([2]; 1 h after injection): 0.06 ± 0.03 % ID/g
Urine ([2]; 1 h after injection): 4.08 ± 5.75 % ID/g
Articular Cartilage ([2]; 3 h after injection): 0.35 ± 0.15 % ID/g
Bile ([2]; 3 h after injection): 0.18 ± 0.24 % ID/g
Blood ([2]; 3 h after injection): 0.17 ± 0.81 % ID/g
Bone ([2]; 3 h after injection): 0.00 ± 0.00 % ID/g
Bone Marrow ([2]; 3 h after injection): 0.00 ± 0.00 % ID/g
Kidney ([2]; 3 h after injection): 0.09 ± 0.03 % ID/g
Liver ([2]; 3 h after injection): 0.08 ± 0.02 % ID/g
Lung ([2]; 3 h after injection): 0.01 ± 0.00 % ID/g
Muscle ([2]; 3 h after injection): 0.00 ± 0.00 % ID/g
Spleen ([2]; 3 h after injection): 0.00 ± 0.00 % ID/g
Thyroid ([2]; 3 h after injection): 0.11 ± 0.01 % ID/g
Urine ([2]; 3 h after injection): 1.34 ± 0.52 % ID/g
Articular Cartilage ([2]; 6 h after injection): 0.09 ± 0.03 % ID/g
Bile ([2]; 6 h after injection): 0.08 ± 0.02 % ID/g
Blood ([2]; 6 h after injection): 0.03 ± 0.00 % ID/g
Bone ([2]; 6 h after injection): 0.00 ± 0.00 % ID/g
Bone Marrow ([2]; 6 h after injection): 0.00 ± 0.00 % ID/g
Kidney ([2]; 6 h after injection): 0.06 ± 0.01 % ID/g
Liver ([2]; 6 h after injection): 0.06 ± 0.01 % ID/g
Lung ([2]; 6 h after injection): 0.00 ± 0.00 % ID/g
Muscle ([2]; 6 h after injection): 0.00 ± 0.00 % ID/g
Spleen ([2]; 6 h after injection): 0.00 ± 0.00 % ID/g
Thyroid ([2]; 6 h after injection): 0.02 ± 0.03 % ID/g
Urine ([2]; 6 h after injection): 1.61 ± 0.6 % ID/g
Articular Cartilage ([2]; 20 h after injection): 0.04 ± 0.01 % ID/g
Bile ([2]; 20 h after injection): 0.03 ± 0.01 % ID/g
Blood ([2]; 20 h after injection): 0.00 ± 0.00 % ID/g
Bone ([2]; 20 h after injection): 0.00 ± 0.00 % ID/g
Bone Marrow ([2]; 20 h after injection): 0.00 ± 0.00 % ID/g
Kidney ([2]; 20 h after injection): 0.07 ± 0.00 % ID/g
Liver ([2]; 20 h after injection): 0.03 ± 0.02 % ID/g
Lung ([2]; 20 h after injection): 0.00 ± 0.00 % ID/g
Muscle ([2]; 20 h after injection): 0.00 ± 0.00 % ID/g
Spleen ([2]; 20 h after injection): 0.01 ± 0.00 % ID/g
Thyroid ([2]; 20 h after injection): 0.00 ± 0.00 % ID/g
Urine ([2]; 20 h after injection): 0.40 ± 0.01 % ID/g

CC[N+](CC)(CC)CCCN1CCCNCCNCCCNCC1.[64Cu+2] [^64Cu-5, [^64Cu]—N,N,N-Triethyl-3-(1,4,8,11-tetraazacyclotetradecan-1-yl)propan-1-aminium copper(II)]
Tumor ([3]; SRC (Swarm Rat Chondrosarcoma) bearing rats): 5.2 ± 2.1 % ID/g
Articular Cartilage ([3]; healthy and SRC bearing rats): 5.9 ± 2.3 % ID/g
Bladder ([3]; healthy and SRC bearing rats): 66.5 ± 14.4 % ID/g
Blood ([3]; healthy and SRC bearing rats): 0.8 ± 1.2 % ID/g
Kidney ([3]; healthy and SRC bearing rats): 27.5 ± 10.1 % ID/g
Muscle ([3]; healthy and SRC bearing rats): 1.5 ± 1.2 % ID/g
Uptake in kidneys compared to ^99mTc-NTPC [4]: higher uptake
Uptake in liver [4]: undetectable
Uptake in target organs (intervertebral disc and articular cartilage) compared to ^99mTc-NTPC [4]: higher uptake
Articular Cartilage [4, 6]: 5.9 ± 2.3 % ID/g
Blood [4, 6]: 0.8 ± 1.2 % ID/g
Intervertebral disc [4, 6]: 3.5 ± 0.6 % ID/g
Kidney [4, 6]: 27.5 ± 10.1 % ID/g
Elimination compared to ^99mTc-NTPC ([4]; indicated by accumulation in kidneys): good elimination
In vivo stability (Cu is not released) ([4]; inferred from liver uptake): stable

CC[N+](CC)(CC)CCCN1CCCNCCNCCCNCC1 [^99mTc-NTPC, metal not drawn]
Articular Cartilage [5]: 0.52 ± 0.08 % ID/g
Blood [5]: 0.22 ± 0.05 % ID/g
Intervertebral disc [5]: 0.36 ± 0.09 % ID/g
Kidney [5]: 2.96 ± 0.36 % ID/g
Liver [5]: 4.34 ± 0.47 % ID/g
